Tests used:
Assay type in all cases: in vivo
[1] = test system: diamond back moth (Plutella xylostella); assay: Insecticidal test against the diamond back moth (Chinese cabbage seedling with eggs, immersion); conditions: 500 ppm, seedling with eggs immersed about 30 seconds, 25° C., six days after immersion
Method: The adult diamond back moths were released and allowed to oviposit on a Chinese cabbage seedling. Two days after the release, the seedling having the eggs deposited thereon was immersed for about 30 seconds in a liquid chemical prepared by diluting a preparation containing the present inventive compound as an active ingredient to adjust the concentration to 500 ppm. After air dried, it was allowed to stand in a room thermostatted at 25° C. Six days after the immersion, the alive insects were counted. The corrected mortality was calculated according to the following equation and the insecticidal effect was judged according to the criterion shown below. The test was carried out with triplicate groups.
(§1) The Comparative test compound was tested in the same way, and the corrected mortality was calculated and judged.
(§2) [formula] • Criterion: A: Corrected mortality 100% • B: Corrected mortality 99%-90% • C: Corrected mortality 89%-80% • D: Corrected mortality 79%-50%

[2] = test system: green peach aphid (Myzus persicae); assay: Control value test against the green peach aphid (foliar spray on Chinese cabbage); conditions: 500 ppm spray on stems and leaves of Chinese cabbage, 6th day after spray
Description: Chinese cabbage was planted in plastic pots with a diameter of 8 cm and a height of 8 cm to breed green peach aphids, and the number of the infesting aphids in each pot was investigated. The present inventive compound was dispersed in water and diluted to a 500 ppm chemical solution, and the chemical solution was sprayed on the stems and leaves of the Chinese cabbage plants planted in the pots. After air drying, the pots were kept in a greenhouse. On the 6th day after the spray of the chemical solution, the number of the green peach aphids infesting on each Chinese cabbage plant was counted and the control value was calculated on the following equation, whereby the effect was judged according to the criterion below.
The Comparative test compound was tested in the same way, and the control value was calculated and judged.
[formula] • Ta: number of infestants before spraying in the treated group, • T: number of infestants after spraying in the treated group, • Ca: number of infestants before spraying in the untreated group, • C: number of infestants after spraying in the untreated group.
• A: Control value 100% • B: Control value 99-90% • C: Control value 89-80% • D: Control value 79-50%

[3] = test system: common cutworm (Spodoptera litura); assay: Insecticidal test against the common cutworm (cabbage leaf dip); conditions: 500 ppm, cabbage leaf dipped about 30 seconds, second-instar larvae, 25° C., eight days after inoculation
Method: A piece of cabbage leaf (cultivar; Shikidori) was dipped for about 30 seconds in a chemical solution prepared by diluting a preparation containing the present inventive compound as an active ingredient to adjust the concentration to 500 ppm. After air dried, it was placed in a plastic Petri dish with a diameter of 9 cm and inoculated with second-instar larvae of common cutworm, after which the dish was closed and then allowed to stand in a room thermostatted at 25° C. Eight days after the inoculation, the number of the alive insects were counted. The corrected mortality was calculated according to the following equation and the insecticidal effect was judged according to the following criterion. The test was carried out with triplicate groups of 10 insects.
as §1, §2

[4] = test system: smaller brown planthopper (Laodelphax striatellus); assay: Insecticidal test against the smaller brown planthopper (rice seedling immersion); conditions: 500 ppm, rice seedling immersed 30 seconds, third instar nymphs, eight days after
Description: The present inventive compound was dispersed in water to adjust the concentration to 500 ppm and a rice seedling was immersed therein for 30 seconds; after air dried, the seedling was put in a test tube, 10 third instar nymphs were inoculated and the test tube was sealed with a cotton plug. Eight days after, the alive and dead insects were counted to calculate the corrected mortality according to the following equation and the insecticidal effect was judged according to the criterion shown below.
as §1, §2

[5] = test system: Western honeybees (Apis mellifera); assay: Safety test for the Western honeybee (oral acute toxicity test)
Method: Seven to ten adult Western honeybees (Apis mellifera) were released in a plastic cage (8 cm×12 cm×20 cm), and after fasting for 2 hours, they were oral administered, using a 1.5 ml microtube, with a 50% sucrose solution as a test bait containing a chemical solution of a predetermined concentration. Four hours after the administration, the test bait was taken out, and the amount of the compound taken per animal was calculated from the remaining amount. At the same time, the animals were fed with a sufficient amount of 50% sucrose solution, maintained at 25° C., H55-75%, 16L8D. The numbers of dead and abnormal insects were counted after 24, 48 and 96 hours to calculate the median lethal dose (LD50 value). The untreated group was fed with a 50% sucrose solution […] and was maintained under the same conditions as the chemical-treated group.

Compound	corrected mortality (activity class) [1]	control value (activity class) [2]	corrected mortality (activity class) [3]	corrected mortality (activity class) [4]	improvement in safety for the Western honeybee compared with the comparative compound ([5]; from oral LD50 values after 96 hours)	LD50 value for one adult honeybee ([5]; oral, after 96 hours, per adult honeybee) [µg]
C[C@H](NC(=O)c1cc(C(F)(F)F)cc(C(F)(F)F)c1)c1ncnn1-c1ncccn1 [comparative compound, (S)—N-(1-(1-(pyrimidin-2-yl)-1H-1,2,4-triazol-5-yl)ethyl)-3,5-bis(trifluoromethyl)benzamide, reference compound]	B or higher	B or higher	B or higher	B or higher	–	–
C[C@H](NC(=O)c1cc(C(F)(F)F)cc(C(F)(F)F)c1)c1ncnn1-c1cc(C(F)(F)F)ncn1 [present inventive compound, (S)—N-(1-(1-(6-trifluoromethylpyrimidin-4-yl)-1H-1,2,4-triazol-5-yl)ethyl)-3,5-bis(trifluoromethyl)benzamide]	B or higher	B or higher	B or higher	B or higher	more than 200 times	2.04

Reference: patent US20250228241A1, “P[…] COMPOUND OR SALT THEREOF, PEST CONTROL AGENT CONTAINING SAID COMPOUND AS ACTIVE INGREDIENT, AND PEST CONTROL METHOD” (NIHON NOHYAKU CO., LTD., priority 2021, published 2025)
